According to the supplement of paper PMC10326909:

Test: ESI positive response factor (isotope-corrected peak area per molar concentration) in SFC/ESI/HRMS (area units per M); higher = higher ionization efficiency
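Also: standards in acetonitrile/water run in triplicate on a zwitterionic HILIC column, CO2–methanol gradient containing 20 mmol/L ammonium acetate, postcolumn makeup flow, Orbitrap full-scan detection.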

| Structure (SMILES) | ESI positive response factor (0.0175 µM) | ESI positive response factor (0.035 µM) | ESI positive response factor (0.0875 µM) | ESI positive response factor (0.175 µM) | ESI positive response factor (0.35 µM) | ESI positive response factor (0.244 µM) | other results |
| --- | --- | --- | --- | --- | --- | --- | --- |
| CCOP(=O)(OCC)OC(=CCl)c1ccc(Cl)cc1Cl [Chlorfenvinphos] | 2.81e+17 | 3.28e+17 | 3.25e+17 | 2.98e+17 | 4.34e+17 | – | – |
| Nc1cnn(-c2ccccc2)c(=O)c1Cl [Chloridazon] | 7.49e+16 | 1.01e+17 | 8.99e+16 | – | – | – | – |
| C[N+](C)(C)CCCl [Chlormequate] | 1.55e+17 | 1.26e+17 | 1.95e+17 | 1.76e+17 | 1.85e+17 | – | – |
| COc1nc(C)nc(NC(=O)NS(=O)(=O)c2ccccc2Cl)n1 [Chlorsulfuron] | – | 4.22e+16 | 4.88e+16 | 5.05e+16 | 5.61e+16 | – | ESI positive response factor (0.875 µM): 5.75e+16; ESI positive response factor (1.75 µM): 5.77e+16 |
| Cc1ccc(NC(=O)N(C)C)cc1Cl [Chlortoluron] | 1.29e+17 | 1.32e+17 | 1.48e+17 | 1.28e+17 | 1.4e+17 | – | – |
| CN=C(NC#N)NCCSCc1nc[nH]c1C [Cimetidine] | 6.5e+16 | 9.26e+16 | 8.81e+16 | 8.23e+16 | 9.32e+16 | – | ESI positive response factor (0.875 µM): 8.86e+16 |
| Nc1ccnc(=O)[nH]1 [Cytosine] | – | – | – | – | 2.81e+15 | – | ESI positive response factor (0.875 µM): 3.21e+15; ESI positive response factor (1.75 µM): 3.05e+15 |
| CCN(CC)C(=O)c1cccc(C)c1 [DEET] | – | – | – | – | 4.74e+17 | – | ESI positive response factor (0.875 µM): 4.86e+17 |
| CN(C)N/N=C1/N=CN=C1C(N)=O [Dacarbazine] | – | – | 2.45e+15 | 5.22e+15 | – | – | – |
| Nc1ccc(S(=O)(=O)c2ccc(N)cc2)cc1 [Dapson] | 6.07e+16 | 8.29e+16 | 8.16e+16 | – | – | – | – |
| CCOP(=S)(OCC)Oc1cc(C)nc(C(C)C)n1 [Diazinon] | 3.13e+16 | 5.67e+16 | 3.71e+16 | 5.13e+16 | – | – | – |
| O=C(O)Cc1ccccc1Nc1c(Cl)cccc1Cl [Diclofenac] | – | – | – | – | 3.71e+15 | – | ESI positive response factor (0.875 µM): 5.3e+15; ESI positive response factor (1.75 µM): 5.19e+15 |
| N#CN=C(N)N [Dicyandiamide] | – | 3.07e+15 | 4.26e+15 | 3.9e+15 | 4.96e+15 | – | ESI positive response factor (0.875 µM): 6.05e+15; ESI positive response factor (1.75 µM): 6.06e+15 |
| CNC(=O)CSP(=S)(OC)OC [Dimethoate] | 5.46e+16 | 5.3e+16 | 5.84e+16 | 5.04e+16 | 5.56e+16 | – | – |
| COC(=O)CCCCCCCCC(=O)OC [Dimethylsebacate] | 7.67e+16 | 7.64e+16 | 6.02e+16 | 5.72e+16 | – | – | – |
| CN(C)C(=O)C(c1ccccc1)c1ccccc1 [Diphenamid] | 1.12e+17 | 1.02e+17 | 1.09e+17 | 9.79e+16 | 1.13e+17 | – | – |
| CN(C)CCOC(c1ccccc1)c1ccccc1 [Diphenhydramine] | 1.59e+17 | 2.23e+17 | 2.16e+17 | 2.35e+17 | 2.4e+17 | – | ESI positive response factor (0.875 µM): 2.25e+17 |
| CCN[C@H]1C[C@H](C)S(=O)(=O)c2sc(S(N)(=O)=O)cc21 [Dorzolamide] | – | 8.5e+15 | 9.06e+15 | 1.22e+16 | 1.22e+16 | – | ESI positive response factor (0.875 µM): 1.24e+16; ESI positive response factor (1.75 µM): 1.24e+16 |

| Structure (SMILES) | ESI positive response factor (0.0175 µM) | ESI positive response factor (0.035 µM) | ESI positive response factor (0.0875 µM) | ESI positive response factor (0.175 µM) | ESI positive response factor (0.35 µM) | ESI positive response factor (0.244 µM) | other results |
| --- | --- | --- | --- | --- | --- | --- | --- |
| CCOC(=O)[C@H](CCc1ccccc1)N[C@@H](C)C(=O)N1CCC[C@H]1C(=O)O [Enalapril] | 2.87e+17 | 3.29e+17 | 3.2e+17 | 3.2e+17 | – | – | – |
| CCOC(=O)CN1CCCC1=O [Ethyl 2-oxo-1-pyrrolidineacetate] | 9.45e+16 | 9.95e+16 | 9.42e+16 | – | – | – | – |
| NC(N)=Nc1nc(CSCCC(N)=NS(N)(=O)=O)cs1 [Famotidin] | – | – | 2.45e+16 | 3.25e+16 | 3.73e+16 | – | ESI positive response factor (0.875 µM): 3.76e+16; ESI positive response factor (1.75 µM): 3.72e+16 |
| CCOC(=O)NCCOc1ccc(Oc2ccccc2)cc1 [Fenoxycarb] | 5.41e+17 | 5.89e+17 | 5.34e+17 | – | – | – | – |
| CNCCC(Oc1ccc(C(F)(F)F)cc1)c1ccccc1 (stereo not drawn) [Fluoxetine] | 9.5e+16 | 1.16e+17 | 1.1e+17 | 1.05e+17 | – | – | – |
| NCC1(CC(=O)O)CCCCC1 [Gabapentin] | – | – | – | – | – | 2.98e+16 | ESI positive response factor (0.61 µM): 2.83e+16; ESI positive response factor (1.22 µM): 3.28e+16 |
| NC(=O)N=C(N)N [Guanylurea] | – | – | – | – | – | 2.7e+15 | ESI positive response factor (0.61 µM): 2.53e+15; ESI positive response factor (1.22 µM): 2.64e+15 |
| CC(Oc1ccc(Oc2ncc(C(F)(F)F)cc2Cl)cc1)C(=O)O (stereo not drawn) [Haloxyfop] | – | – | – | – | – | 5.62e+15 | ESI positive response factor (0.61 µM): 5.23e+15; ESI positive response factor (1.22 µM): 4.69e+15 |
| COc1ccc2c(c1)c(CC(=O)O)c(C)n2C(=O)c1ccc(Cl)cc1 [Indomethacin] | – | – | – | – | – | 1.53e+16 | ESI positive response factor (0.122 µM): 1.45e+16; ESI positive response factor (0.61 µM): 1.99e+16 |
| COCC(=O)Nc1c(I)c(C(=O)NCC(O)CO)c(I)c(C(=O)N(C)CC(O)CO)c1I (stereo not drawn) [Iopromide] | – | – | – | – | – | – | ESI positive response factor (0.61 µM): 1.19e+15; ESI positive response factor (1.22 µM): 1.27e+15 |
| O=C(O)[C@@H]1C[C@@H](O)CN1 [L-Hydroxyprolin] | – | – | – | – | – | 3.07e+15 | ESI positive response factor (0.122 µM): 2.76e+15; ESI positive response factor (0.61 µM): 2.85e+15 |
| N[C@@H](Cc1ccccc1)C(=O)O [L-Phenylalanin] | – | – | – | – | – | 1.44e+16 | ESI positive response factor (0.122 µM): 1.51e+16; ESI positive response factor (0.61 µM): 1.27e+16 |
| N[C@@H](Cc1ccc(O)cc1)C(=O)O [L-Tyrosine] | – | – | – | – | – | 3.05e+15 | ESI positive response factor (0.061 µM): 2.58e+15; ESI positive response factor (0.122 µM): 2.67e+15 |
| Nc1cccc2c1CN(C1CCC(=O)NC1=O)C2=O (stereo not drawn) [Lenalidomid] | – | – | – | – | – | 4.65e+14 | ESI positive response factor (0.61 µM): 5.58e+14; ESI positive response factor (1.22 µM): 7.56e+14 |
| CON(C)C(=O)Nc1ccc(Cl)c(Cl)c1 [Linuron] | – | – | – | – | – | 4.46e+16 | ESI positive response factor (0.0122 µM): 4.3e+16; ESI positive response factor (0.0244 µM): 3.86e+16; ESI positive response factor (0.061 µM): 4.29e+16; ESI positive response factor (0.122 µM): 4.05e+16 |
| NCCCC[C@H](N[C@@H](CCc1ccccc1)C(=O)O)C(=O)N1CCC[C@H]1C(=O)O [Lisinopril] | – | – | – | – | – | 1.58e+16 | ESI positive response factor (0.0122 µM): 7.7e+15; ESI positive response factor (0.0244 µM): 1.4e+16; ESI positive response factor (0.061 µM): 1.89e+16; ESI positive response factor (0.122 µM): 1.43e+16 |
| Nc1nc(N)nc(N)n1 [Melamine] | – | – | – | – | – | 1.82e+16 | ESI positive response factor (0.0244 µM): 1.84e+16; ESI positive response factor (0.061 µM): 2.07e+16; ESI positive response factor (0.122 µM): 1.7e+16 |
| Cc1cccc(C)c1N(Cn1cccn1)C(=O)CCl [Metazachlor] | – | – | – | – | – | 2.65e+17 | ESI positive response factor (0.0122 µM): 3.21e+17; ESI positive response factor (0.0244 µM): 3.32e+17; ESI positive response factor (0.061 µM): 3.05e+17; ESI positive response factor (0.122 µM): 2.62e+17 |
